Source: ChEMBL document CHEMBL1128110, “Enantiodifferentiation of dihydropyridine PAF antagonists” (Bioorg Med Chem Lett, 1995)

Legend:
[1] = tested on: Mus sp.; experiment: In vivo for PAF antagonist activity in mice after oral administration; type: functional
[2] = Oral bioavailability in dog; type: ADME, organism-based, Canis lupus familiaris; conditions: in vivo
[3] = Plasma half life was evaluated; type: ADME, organism-based, Canis lupus familiaris; conditions: dog
[4] = species on record: Rattus norvegicus; experiment: Calcium channel blocking activity in K+ stimulated rat aorta assay; type: functional
[5] = Inhibition of [3H]nitrendipine binding to dihydropyridine sites of bovine frontal cortex membranes; type: tissue-based, Bos taurus
[6] = Plasma half life was evaluated in dog; type: ADME, organism-based, Canis lupus familiaris
[7] = Half life was evaluated in dog; type: ADME, organism-based, Canis lupus familiaris; conditions: in vivo
[8] = Plasma half life was evaluated in Dog; type: ADME, organism-based, Canis lupus familiaris

Q: With `CCOC(=O)C1=C(c2ccc(-n3c(C)nc4cnccc43)cc2)NC(C)=C(C(=O)Nc2ccccn2)C1c1ccccc1Cl` (single isomer, unassigned; (+)) as the compound, how does the ED50 [1] read?
A: Its ED50 is 0.15 mg/kg.

Q: With `CCO/C(O)=C1\C(COCCn2c(C)nc(C)c2C)=NC(C)=C(C(=O)NC(C)(C)C)C1c1ccccc1Cl` (stereo unspecified) as the compound, how does the ED50 ([1]; Mus sp., po, read-out: ED50) read?
A: Its ED50 is 10.1 mg/kg.

Q: For `CCO/C(O)=C1\C(COCCn2c(C)nc3cnccc32)=NC(C)=C(C(=O)Nc2ccccn2)C1c1ccccc1Cl` (stereo unspecified), which ED50 ([1]; Mus sp., po, read-out: ED50) is on record?
A: The ED50 was 2 mg/kg.

Q: What about the bioavailability [2] of the same compound?
A: The bioavailability was 4%.

Q: What about the half-life [3] of the same compound?
A: Its half-life is 0.75 h.

Q: What does the source list for `CCO/C(O)=C1\C(COCCn2c(C)nc(C)c2C)=NC(C)=C(C(=O)OC)[C@@H]1c1ccccc1Cl`?
A: IC50 [4]: 12 nM; IC50 [5]: 41 nM

Q: For `CCO/C(O)=C1\C(COCCn2c(C)nc(C)c2C)=NC(C)=C(C(=O)OC)C1c1ccccc1Cl` (stereo unspecified), which IC50 [4] is on record?
A: Its IC50 is 14 nM.

Q: And the IC50 [5]?
A: Its IC50 is 96 nM.

Q: With `CCOC(=O)C1=C(c2ccc(-n3c(C)nc4cnccc43)cc2)NC(C)=C(C(=O)Nc2ccccn2)C1c1ccccc1Cl` (stereo in doubt; 18) as the compound, how does the ED50 [1] read?
A: The ED50 was 0.26 mg/kg.

Q: What about the bioavailability [2] of the same compound?
A: The bioavailability was 100%.

Q: And the half-life [6]?
A: Its half-life is 1.2 h.

Q: With `CCO/C(O)=C1\C(COCCn2c(C)nc3ccccc32)=NC(C)=C(C(=O)Nc2ccccn2)C1c1ccccc1Cl` (stereo unspecified) as the compound, how does the ED50 ([1]; Mus sp., po, read-out: ED50) read?
A: Its ED50 is 49 mg/kg.

Q: For `CCO/C(O)=C1\C(COCCn2c(C)nc3ncccc32)=NC(C)=C(C(=O)Nc2ccccn2)C1c1ccccc1Cl` (stereo unspecified), which ED50 ([1]; Mus sp., po, read-out: ED50) is on record?
A: The ED50 was 31 mg/kg.

Q: For `CCO/C(O)=C1\C(COCCn2c(C)nc(C)c2C)=NC(C)=C(C(=O)Nc2cccc(C)n2)C1c1ccccc1Cl` (stereo unspecified), which ED50 ([1]; Mus sp., po, read-out: ED50) is on record?
A: The ED50 was 4.5 mg/kg.

Q: What about the bioavailability [2] of the same compound?
A: The bioavailability was 9%.

Q: And the half-life [7]?
A: Its half-life is 4.4 h.

Q: With `CCO/C(O)=C1\C(COCCn2c(C)nc3cccnc32)=NC(C)=C(C(=O)Nc2ccccn2)C1c1ccccc1Cl` (stereo unspecified) as the compound, how does the ED50 ([1]; Mus sp., po, read-out: ED50) read?
A: The ED50 was 25 mg/kg.

Q: Which ED50 [1] does the source give for `CCOC(=O)C1=C(c2ccc(-n3c(C)nc4cnccc43)cc2)NC(C)=C(C(=O)Nc2ccccn2)C1c1ccccc1Cl` (single isomer, unassigned; (-)) here?
A: Its ED50 is 3.8 mg/kg.

Q: Which ED50 ([1]; Mus sp., po, read-out: ED50) does the source give for `CCO/C(O)=C1\C(COCCn2c(C)nc(C)c2C)=NC(C)=C(C(=O)Nc2ccccc2)C1c1ccccc1Cl` (stereo unspecified) here?
A: Its ED50 is 18 mg/kg.

Q: Which IC50 [4] does the source give for `CCO/C(O)=C1\C(COCCn2c(C)nc(C)c2C)=NC(C)=C(C(=O)OC)[C@H]1c1ccccc1Cl` here?
A: Its IC50 is over 1000 nM.

Q: What about the IC50 [5] of the same compound?
A: Its IC50 is over 10000 nM.

Q: Which half-life [8] does the source give for `CCO/C(O)=C1\C(COCCn2c(C)nc3ccccc32)=NC(C)=C(C(=O)NC(C)(C)C)C1c1ccccc1Cl` (stereo unspecified) here?
A: The half-life was 1.2 h.

Q: What about the ED50 ([1]; Mus sp., po, read-out: ED50) of the same compound?
A: The ED50 was 34 mg/kg.

Q: And the bioavailability [2]?
A: The bioavailability was 30%.

Q: Which ED50 ([1]; Mus sp., po, read-out: ED50) does the source give for `CCO/C(O)=C1\C(COCCn2c(C)nc3ccncc32)=NC(C)=C(C(=O)Nc2ccccn2)C1c1ccccc1Cl` (stereo unspecified) here?
A: Its ED50 is 29 mg/kg.
